Results on one molecule are retold here after US8513303B2, “Antimicrobial agent” (De Montfort University, priority 2007, dated 2013).

This assay has as its system Bacillus subtilis subsp. spizizenii ATCC 6633 spore. Nature of the assay: Testing for antimicrobial activity against spores (sporicidal suspension test). The class given is cell-based. On the procedure: Spore suspensions were prepared based on the general principles of European quantitative suspension tests for evaluation of sporicidal activity (BS EN14347:2005: chemical disinfectants and antiseptics, basic sporicidal activity, test method and requirements (phase 1, step 1), London: British Standards Institute). Tryptone soya broth was seeded with spores from a previous batch and incubated at 37° C. to obtain an exponential growth phase culture. 10 mL of this culture was transferred into a Roux flask containing manganese-sulfate sporulation agar so that the inoculum came into contact with all of the surface of the agar. The Roux flasks were incubated at 37° C. for 2 days and for 21 days at 30° C., cultures were recovered, checked for sporulation and stored in water at 5° C. Sporicidal activity was then assessed using the method outlined previously (but with half the volume/weight of hydrogen peroxide, water, organism and catalyst) using 5 to 7.5% w/v hydrogen peroxide (see testing antimicrobial activity section). After neutralisation, a 1 mL sample was added to 12 to 15 mL of melted tryptone soya agar cooled to 45° C. Petri dishes were incubated for a minimum of 4 days and a maximum of 7 days at 37° C. and the log10 reduction in bacterial spore numbers calculated.

With `OO` [Example H2O2, hydrogen peroxide], the “Mean log10 reduction in CFU/ml” value is, setting by setting: (5% w/v H2O2, no air, 10 min) 1.02 (0.03) log10 CFU/ml; (5% w/v H2O2, no air, 30 min) 1.26 (0.12) log10 CFU/ml; (5% w/v H2O2, no air, 60 min) 1.90 (0.09) log10 CFU/ml; (5% w/v H2O2, no air, 120 min) 3.45 (0.27) log10 CFU/ml; (5% w/v H2O2, no air, 120 min, listed as hydrogen peroxide) 3.45 log10 CFU/ml; (7.5% w/v H2O2, no air, 10 min) 0.04 (0.11) log10 CFU/ml. Moreover, the “Mean log10 reduction in CFU/ml” value (7.5% w/v H2O2, no air, 30 min) is on record as 0.19 (0.08) log10 CFU/ml; the “Mean log10 reduction in CFU/ml” value (7.5% w/v H2O2, no air, 60 min) is given as 0.95 (0.01) log10 CFU/ml; the “Mean log10 reduction in CFU/ml” value (7.5% w/v H2O2, no air, 120 min) is listed as 4.22 (0.71) log10 CFU/ml; the “Mean log10 reduction in CFU/ml” value (7.5% w/v H2O2, no air, 120 min, listed as hydrogen peroxide) was 4.22 log10 CFU/ml.
